According to US10925872B2, “Methods of treating cochlear synaptopathy” (PIPELINE THERAPEUTICS, INC., priority 2016, dated 2021):

Columns and labels:
[1] = system: Type I spiral ganglion neurons; assay: Type I spiral ganglion neuron neurite outgrowth with GSIs; assay type: cell-based, CD-1 mice; settings: 24-48 h, 0.1% DMSO
Description: Mouse spiral ganglion neurons (SGN) were harvested from CD-1 mice (postnatal day 3 to 5), dissociated and cultured on collagen I in serum free media. Cells were treated for 24-48 h with test compound in 0.1% DMSO then immunostained with the neurite marker, Tuj1 and imaged. Neurite length was quantified using ImageJ software (developed by NIH and available publicly). Only Tuj1^+ cells with clear bipolar morphology characteristic of Type I SGNs were quantified. The test compounds were Compound I, Compound II, and RO4929097, as well as the Notch sparing GSI, BMS-708163; NT-3 was included as positive control. […] Moreover, BMS-708163, a Notch-sparing GSI, and Compound I, a Notch inhibiting GSI, both increased type I SGN neurite outgrowth (FIG. 6C).

[2] = system: inner hair cell synapses; assay: Guinea pig kanamycin-induced cochlear synaptopathy model; assay type: in vivo, Hartley guinea pigs; settings: kanamycin 400 mg/kg i.p. 10 days; 30 μl of 2% in vehicle bilateral transtympanic on day 15; three months after
Description: Beginning on day 0, male Hartley guinea pigs (450-500 g) were deafened by intraperitoneal administration of kanamycin (400 mg/kg) dosed once daily for 10 consecutive days. […] A loss of synapse density in this model has not been described previously. On day 15, animals received bilateral transtympanic injections of vehicle (30 μl), crystalline Compound I (30 μl of 2% in vehicle), or crystalline Compound II (30 μl of 2% in vehicle). Three months after administration of test article, animals were euthanized and cochleae collected and stained with phalloidin and antibodies against CtBP2 and NF-200. The number of CtBP2+/NF-200+ synapses were quantified and normalized to the number of inner hair cells to obtain synapse density. Synapse density was decreased with kanamycin treatment at 14.7 and 17.3 mm from the apex of the cochlea, which in the guinea pig cochlea, tonally correlates with 16 and 32 kHz, respectively, according to the Greenwood frequency map.
Vehicle (PF10) and GSI in vehicle used in Examples 6 and 7 were prepared as follows: To 129 mL sterile water was added, 0.96 g sodium chloride, 0.59 g sodium phosphate dibasic, and 0.14 g sodium phosphate monobasic. The solution was stirred at ambient temperature and 25.6 g poloxamer 407 was added and stirred overnight to yield a clear solution. […]

[3] = system: Type I spiral ganglion neurons; assay: Type I spiral ganglion neuron neurite outgrowth with GSMs; assay type: cell-based, CD-1 mice; settings: for EC50: 24 h treatment, Type I SGNs; for neurite outgrowth (length of Type I SGN neurites): varying concentrations, 24 h
Description: Spiral ganglion neurons (SGNs) were cultured from postnatal day 5 CD-1 mice using methods adapted from Whitlon D S, et al., Scientific Reports, 2015, 5, 15960, doi:10.1038/srep15960. Neurons were dissociated and plated onto collagen-coated 96-well plates in growth media (DMEM/F12, N2 and B27 serum supplements and penicillin/streptomycin). After 18 h in culture, neurons were treated with varying concentrations of RO or NGP-555 for 24 h. Neurons were fixed and stained with a rabbit b-tubulin (somato-axonal marker) antibody followed by a donkey-anti-rabbit secondary antibody conjugated to Alexa 568 and counterstained with Hoechst blue fluorescent dye to stain the DNA. Neurons were imaged on an InCell 2000. Neurite length was measured using ImageJ. Only β-tubulin^+ cells displaying bipolar morphology (indicative of Type I SGNs) were quantified.
To determine whether the netrin-DCC pathway is involved in GSM-induced neurite outgrowth, a function-blocking netrin antibody was applied to the media 1 h prior to addition of 1 μM test compound. After 24 h, neurons are stained with β-tubulin and only neurites from Type I neurons are analyzed. Co-application of the netrin antibody with test compound results in a significant reduction in neurite outgrowth (FIG. 4D).

[4] = system: synapses on inner hair cells; assay: Mouse noise-induced cochlear synaptopathy, oral GSM; assay type: in vivo, CBA/J mice; settings: 98 dB 8-16 kHz noise 2 h; oral gavage from three weeks later; fourteen days later; 32 kHz region
Description: Female CBA/J mice were exposed to 98 dB 8-16 kHz filtered noise for 2 hours. Three weeks later, vehicle (0.5% Methylcellulose, b.i.d.), NGP-555 (50 mg/kg, b.i.d.) or RO (10 mg/kg, q.d.) was given by oral gavage. Fourteen days later, mice were euthanized, cochlea removed, then tissue was fixed by perfusion with 4% paraformaldehyde. Cochlea were washed with calcium/magnesium free PBS then decalcified in 12.5 mM EDTA for 3 days. Cochlea were bisected with a midmodiolar cut through the oval window to apex. Individual turns were then separated and stained with antibodies against Myo6 and CtBP2. Synapses per inner hair cell were quantified on the turn containing the 32 kHz region. Consistent with literature, a decrease in synaptic density (but no decrease in inner or outer hair cell number) was observed after the 98 dB insult.

[5] = system: DCC α-fragment; assay: DCC α-fragment Western blot, mouse ex vivo embryonic spinal cord; assay type: cell-based, CD-1 mice; settings: embryonic day 15 spinal cord segments, 1 μM, 24 h, normalized to actin
Description: (§1) Previous reports have shown that DCC (deleted in colorectal cancer) is a γ-secretase substrate. DCC is the receptor for the guidance molecule, netrin, and its activation results in neuronal axon outgrowth, axon turning and synapse formation. Embryonic spinal cords of presenilin knockout mice treated display persistent expression of the DCC α-fragment; these fragments can enhance netrin-DCC mediated events, including axon outgrowth in cultured motor neurons (Taniguchi et al., 2003, J. Biol. Chem., 278:30425-30428, and Bai et al., 2011, Cell, 144(1): 106-18). The following studies were performed using GSM, “RO”, as well as the GSI, Compound I. RO has the structure:
Spinal cords from embryonic day 15 CD-1 mice were collected and cut into 1-2 mm segments and transferred to serum-free growth media (DMEM-F12, N2 and B27 serum supplements, penicillin/streptomycin) with 1 μM RO or 1 μM Compound I. Segments were cultured for 24 h (37° C., 5% CO2) then processed for Western blot. Membranes were probed with a DCC antibody recognizing the intracellular domain and bands were normalized to actin.

[6] = system: DCC α-fragment; assay: DCC α-fragment Western blot, mouse ex vivo cochlea (spiral ganglion); assay type: cell-based, CD-1 mice; settings: postnatal day 21 cochlea, 1 μM, 24 h, normalized to actin
Description: as §1
Cochleae were obtained from postnatal day 21 CD-1 mice. An opening was made in the bone at the cochlear apex to allow for fluid flow. Cochlea were incubated in serum-free growth media (DMEM-F12, N2 and B27 serum supplements, penicillin/streptomycin) with 1 μM RO or 1 μM Compound I. After 24 h, spiral ganglion were isolated and processed for Western blot. Membranes were probed with a DCC antibody recognizing the intracellular domain and bands were normalized to actin.

[7] = system: inner hair cell synapses; settings: noise-exposed mice, delivery to the round window niche; cited from earlier work

NC(=O)[C@@H](CCC(F)(F)F)N(Cc1ccc(-c2ncon2)cc1F)S(=O)(=O)c1ccc(Cl)cc1 [BMS-708163, reference compound]
lengths of Type I SGN neurites [1]: increased

CN1C(=O)[C@@H](NC(=O)[C@](C)(F)C(=O)NCC(F)(F)C(F)(F)F)c2ccccc2-c2ccccc21 [Compound II, (2R)-2-fluoro-2-methyl-N—[(S)-5-methyl-6-oxo-6,7-dihydro-5H-dibenzo[b,d]azepin-7-yl]-N′-(2,2,3,3,3-pentafluoropropyl)malonamide]
lengths of Type I SGN neurites [1]: significant increase | synapse density (CtBP2+/NF-200+ synapses per inner hair cell) [2]: increased

COc1ccc2c(c1)N1CCC(C)(C)C1=CC(=O)C2NC(=O)[C@H](C)NC(=O)CCC(F)(F)F (stereo partly drawn) [Compound X, 4,4,4-trifluoro-N-((2S)-1-((9-methoxy-3,3-dimethyl-5-oxo-2,3,5,6-tetrahydro-1H-benzo[f]pyrrolo[1,2-a]azepin-6-yl)amino)-1-oxopropan-2-yl)butanamide]
lengths of Type I SGN neurites [1]: dose-dependent increase

CCc1cc(Nc2nc(-c3ccc(-n4cnc(C)c4)c(F)c3)cs2)c(C)cc1C [NGP555]
EC50 ([3]; Mus musculus, Neuron): 0.527 nM | neurite outgrowth (length of Type I SGN neurites) [3]: dose dependent increase | number of synapses on inner hair cells (synaptic density) [4]: significantly increased

Cc1cn(-c2ccc3n(c2=O)CCN([C@@H](C)[C@@H]2CC[C@H](c4cc(F)c(Cl)cc4C(F)(F)F)O2)C3=O)cn1 [PF-06648671]
EC50 [3]: 0.303 nM | neurite outgrowth (length of Type I SGN neurites) [3]: dose-dependence increases

CC(C)(C(=O)NCC(F)(F)C(F)(F)F)C(=O)N[C@@H]1C(=O)Nc2ccccc2-c2ccccc21 [RO4929097, reference compound]
lengths of Type I SGN neurites [1]: significant increase

Cc1nsc(N2C[C@H]3CC[C@@H](C2)[C@@H]3Nc2nc3c(-c4ccc(F)c(F)c4F)cccn3n2)n1 [RO]
DCC α-fragment level compared to the vehicle group [5]: Increase in α-fragment | DCC α-fragment level compared to the vehicle group [6]: Increase in α-fragment | EC50 ([3]; Mus musculus, Neuron): 24 nM | neurite outgrowth (length of Type I SGN neurites) [3]: dose dependent increase | number of synapses on inner hair cells (synaptic density) [4]: increase in synaptic density

B1: NT-3: growth factor that binds to TrkC receptors; positive control (protein, UniProt P20783 139-257, looked up)
Neurotrophin-3: YAEHKSHRGEYSVCDSESLWVTDKSSAIDIRGHQVTVLGEIKTGNSPVKQYFYETRCKEARPVKNGCRGIDDKHWNSQCKTSQTYVRALTSENNKLVGWRWIRIDTSCVCALSRKIGRT
ABR wave 1 amplitude [7]: improvement | inner hair cell synapses [7]: recovered inner hair cell synapses
